Experimental data reported in ChEMBL document CHEMBL1687752, “Impact of antifungal prophylaxis on colonization and azole susceptibility of Candida species” (2009).
≈ marks a conversion by molar mass, not a printed value.

Each compound was assayed on Pichia kudriavzevii (assay: Antifungal activity against 14 days cultured Candida krusei isolated from neutropenic subject with AML or MDS pharynx after 12 days of prophylaxis by broth microdilution method). Conditions: not given.
Format: functional
For `CC[C@@H]([C@H](C)O)n1ncn(-c2ccc(N3CCN(c4ccc(OC[C@@H]5CO[C@@](Cn6cncn6)(c6ccc(F)cc6F)C5)cc4)CC3)cc2)c1=O` [POSACONAZOLE], the MIC was 0.125 µg/mL (≈ 0.178 µM).

The compounds below were run on Nakaseomyces glabratus (assay: Antifungal activity against Candida glabrata isolated from neutropenic subject 1497 with AML or MDS pharynx receiving antifungal drug after 61 days prophylaxis by broth microdilution method). Conditions: not given.
Format: functional
With `CC[C@@H]([C@H](C)O)n1ncn(-c2ccc(N3CCN(c4ccc(OC[C@@H]5CO[C@@](Cn6cncn6)(c6ccc(F)cc6F)C5)cc4)CC3)cc2)c1=O` [POSACONAZOLE] the MIC was 4 µg/mL (≈ 5.71 µM).

The compounds below were run on Nakaseomyces glabratus (assay: Antifungal activity against Candida glabrata isolated from neutropenic subject 1491 with AML or MDS pharynx after 23 days prophylaxis by broth microdilution method). Conditions: 552 h.
Format: functional
Work on `CC[C@@H]([C@H](C)O)n1ncn(-c2ccc(N3CCN(c4ccc(OC[C@@H]5CO[C@@](Cn6cncn6)(c6ccc(F)cc6F)C5)cc4)CC3)cc2)c1=O` [POSACONAZOLE] yielded an MIC of 0.5 µg/mL (≈ 0.713 µM).

What follows are compounds tested on Candida albicans (assay: Antifungal activity against Candida albicans isolated from HSCT recipients with acute or chronic GVHD receiving posaconazole assessed as maximum MIC by broth microdilution method). Conditions: not given.
Format: functional
In the case of `CC[C@@H]([C@H](C)O)n1ncn(-c2ccc(N3CCN(c4ccc(OC[C@@H]5CO[C@@](Cn6cncn6)(c6ccc(F)cc6F)C5)cc4)CC3)cc2)c1=O` [POSACONAZOLE], the MIC was 0.25 µg/mL.

The compounds below were run on Nakaseomyces glabratus (assay: Antifungal activity against Candida glabrata isolated from neutropenic subject 1497 with AML or MDS pharynx after 61 days prophylaxis by broth microdilution method). Conditions: not given.
Format: functional
Work on `CC[C@@H]([C@H](C)O)n1ncn(-c2ccc(N3CCN(c4ccc(OC[C@@H]5CO[C@@](Cn6cncn6)(c6ccc(F)cc6F)C5)cc4)CC3)cc2)c1=O` [POSACONAZOLE] yielded an MIC of 0.03 µg/mL (≈ 0.0428 µM).

The compounds below were run on Nakaseomyces glabratus (assay: Antifungal activity against Candida glabrata isolated from HSCT recipient 975 with acute or chronic GVHD mouth after 112 days prophylaxis by broth microdilution method). Conditions: not given.
Format: functional
With `CC[C@@H]([C@H](C)O)n1ncn(-c2ccc(N3CCN(c4ccc(OC[C@@H]5CO[C@@](Cn6cncn6)(c6ccc(F)cc6F)C5)cc4)CC3)cc2)c1=O` [POSACONAZOLE] the MIC was 0.25 µg/mL (≈ 0.357 µM).

What follows are compounds tested on Nakaseomyces glabratus (assay: Antifungal activity against 176 days cultured Candida glabrata isolated from HSCT recipient with acute or chronic GVHD mouth receiving antifungal therapy for 168 days after 113 days of prophylaxis by broth microdilution method). Conditions: not given.
Format: functional
For `CC[C@@H]([C@H](C)O)n1ncn(-c2ccc(N3CCN(c4ccc(OC[C@@H]5CO[C@@](Cn6cncn6)(c6ccc(F)cc6F)C5)cc4)CC3)cc2)c1=O` [POSACONAZOLE], the MIC was 4 µg/mL (≈ 5.71 µM).

What follows are compounds tested on Nakaseomyces glabratus (assay: Antifungal activity against Candida glabrata isolated from neutropenic subject 1187 with AML or MDS stool after 22 days prophylaxis by broth microdilution method). Conditions: 528 h.
Format: functional
Work on `CC[C@@H]([C@H](C)O)n1ncn(-c2ccc(N3CCN(c4ccc(OC[C@@H]5CO[C@@](Cn6cncn6)(c6ccc(F)cc6F)C5)cc4)CC3)cc2)c1=O` [POSACONAZOLE] yielded an MIC of 0.5 µg/mL (≈ 0.713 µM).

What follows are compounds tested on Nakaseomyces glabratus (assay: Antifungal activity against Candida glabrata isolated from HSCT recipient 270 with acute or chronic GVHD mouth after 108 days prophylaxis by broth microdilution method). Conditions: not given.
Format: functional
In the case of `CC[C@@H]([C@H](C)O)n1ncn(-c2ccc(N3CCN(c4ccc(OC[C@@H]5CO[C@@](Cn6cncn6)(c6ccc(F)cc6F)C5)cc4)CC3)cc2)c1=O` [POSACONAZOLE], the MIC was 0.06 µg/mL (≈ 0.0856 µM).

Each compound was assayed on Nakaseomyces glabratus (assay: Antifungal activity against 12 days cultured Candida glabrata isolated from HSCT recipient with acute or chronic GVHD mouth receiving antifungal therapy for 143 days after 116 days of prophylaxis by broth microdilution method). Conditions: not given.
Format: functional
In the case of `CC[C@@H]([C@H](C)O)n1ncn(-c2ccc(N3CCN(c4ccc(OC[C@@H]5CO[C@@](Cn6cncn6)(c6ccc(F)cc6F)C5)cc4)CC3)cc2)c1=O` [POSACONAZOLE], the MIC was 2 µg/mL (≈ 2.85 µM).

These compounds were tested on Nakaseomyces glabratus (assay: Antifungal activity against 3 days cultured Candida glabrata isolated from neutropenic subject with AML or MDS stool receiving antifungal therapy for 25 days after 3 days of prophylaxis by broth microdilution method). Conditions: not given.
Format: functional
In the case of `CC[C@@H]([C@H](C)O)n1ncn(-c2ccc(N3CCN(c4ccc(OC[C@@H]5CO[C@@](Cn6cncn6)(c6ccc(F)cc6F)C5)cc4)CC3)cc2)c1=O` [POSACONAZOLE], the MIC was 0.5 µg/mL (≈ 0.713 µM).

These compounds were tested on Nakaseomyces glabratus (assay: Antifungal activity against Candida glabrata isolated from HSCT recipient 497 with acute or chronic GVHD mouth after 114 days prophylaxis by broth microdilution method). Conditions: not given.
Format: functional
Work on `CC[C@@H]([C@H](C)O)n1ncn(-c2ccc(N3CCN(c4ccc(OC[C@@H]5CO[C@@](Cn6cncn6)(c6ccc(F)cc6F)C5)cc4)CC3)cc2)c1=O` [POSACONAZOLE] yielded an MIC of 0.5 µg/mL (≈ 0.713 µM).

These compounds were tested on Candida albicans (assay: Antifungal activity against Candida albicans isolated from HSCT recipients with acute or chronic GVHD prior to initiation of posaconazole therapy assessed as maximum MIC by broth microdilution method). Conditions: not given.
Format: functional
Work on `CC[C@@H]([C@H](C)O)n1ncn(-c2ccc(N3CCN(c4ccc(OC[C@@H]5CO[C@@](Cn6cncn6)(c6ccc(F)cc6F)C5)cc4)CC3)cc2)c1=O` [POSACONAZOLE] yielded an MIC of 16 µg/mL.

These compounds were tested on Nakaseomyces glabratus (assay: Antifungal activity against Candida glabrata isolated from neutropenic subjects with AML or MDS prior to initiation of posaconazole therapy by broth microdilution method). Conditions: not given.
Format: functional
`CC[C@@H]([C@H](C)O)n1ncn(-c2ccc(N3CCN(c4ccc(OC[C@@H]5CO[C@@](Cn6cncn6)(c6ccc(F)cc6F)C5)cc4)CC3)cc2)c1=O` [POSACONAZOLE] gave an MIC50 of 0.25 µg/mL (≈ 0.357 µM) and an MIC90 of 2 µg/mL (≈ 2.85 µM).

The compounds below were run on Nakaseomyces glabratus (assay: Antifungal activity against 43 days cultured Candida glabrata isolated from HSCT recipient with acute or chronic GVHD mouth receiving antifungal therapy for 172 days after 114 days of prophylaxis by broth microdilution method). Conditions: not given.
Format: functional
With `CC[C@@H]([C@H](C)O)n1ncn(-c2ccc(N3CCN(c4ccc(OC[C@@H]5CO[C@@](Cn6cncn6)(c6ccc(F)cc6F)C5)cc4)CC3)cc2)c1=O` [POSACONAZOLE] the MIC was 1 µg/mL (≈ 1.43 µM).

What follows are compounds tested on Nakaseomyces glabratus (assay: Antifungal activity against 1 day cultured Candida glabrata isolated from HSCT recipient with acute or chronic GVHD mouth after 17 days of prophylaxis by broth microdilution method). Conditions: not given.
Format: functional
In the case of `CC[C@@H]([C@H](C)O)n1ncn(-c2ccc(N3CCN(c4ccc(OC[C@@H]5CO[C@@](Cn6cncn6)(c6ccc(F)cc6F)C5)cc4)CC3)cc2)c1=O` [POSACONAZOLE], the MIC was > 8 µg/mL.

Each compound was assayed on Nakaseomyces glabratus (assay: Antifungal activity against Candida glabrata isolated from HSCT recipient 975 with acute or chronic GVHD mouth receiving antifungal drug after 112 days prophylaxis by broth microdilution method). Conditions: not given.
Format: functional
With `CC[C@@H]([C@H](C)O)n1ncn(-c2ccc(N3CCN(c4ccc(OC[C@@H]5CO[C@@](Cn6cncn6)(c6ccc(F)cc6F)C5)cc4)CC3)cc2)c1=O` [POSACONAZOLE] the MIC was 4 µg/mL (≈ 5.71 µM).

What follows are compounds tested on Nakaseomyces glabratus (assay: Antifungal activity against 35 days cultured Candida glabrata isolated from HSCT recipient with acute or chronic GVHD mouth receiving antifungal therapy for 165 days after 138 days of prophylaxis by broth microdilution method). Conditions: not given.
Format: functional
With `CC[C@@H]([C@H](C)O)n1ncn(-c2ccc(N3CCN(c4ccc(OC[C@@H]5CO[C@@](Cn6cncn6)(c6ccc(F)cc6F)C5)cc4)CC3)cc2)c1=O` [POSACONAZOLE] the MIC was 4 µg/mL (≈ 5.71 µM).

Each compound was assayed on Nakaseomyces glabratus (assay: Antifungal activity against 16 days cultured Candida glabrata isolated from HSCT recipient with acute or chronic GVHD mouth receiving antifungal therapy for 31 days after 28 days of prophylaxis by broth microdilution method). Conditions: not given.
Format: functional
With `CC[C@@H]([C@H](C)O)n1ncn(-c2ccc(N3CCN(c4ccc(OC[C@@H]5CO[C@@](Cn6cncn6)(c6ccc(F)cc6F)C5)cc4)CC3)cc2)c1=O` [POSACONAZOLE] the MIC was < 0.5 µg/mL.

These compounds were tested on Nakaseomyces glabratus (assay: Antifungal activity against Candida glabrata isolated from HSCT recipients with acute or chronic GVHD receiving fluconazole by broth microdilution method). Conditions: not given.
Format: functional
With `CC[C@@H]([C@H](C)O)n1ncn(-c2ccc(N3CCN(c4ccc(OC[C@@H]5CO[C@@](Cn6cncn6)(c6ccc(F)cc6F)C5)cc4)CC3)cc2)c1=O` [POSACONAZOLE] the MIC50 was 2 µg/mL (≈ 2.85 µM) and the MIC90 was 8 µg/mL (≈ 11.4 µM).
